Reference: ChEMBL document CHEMBL4765487, “From a Designer Drug to the Discovery of Selective Cannabinoid Type 2 Receptor Agonists with Favorable Pharmacokinetic Profiles for the Treatment of Systemic Sclerosis” (J Med Chem, 2021)
Active and inactive are the calls of the source. No cut-off for these calls is given here.

Columns and labels:
Cannabinoid receptor 1 [1] = biological target: T1, Cannabinoid receptor 1 (Homo sapiens, UniProt P21554); experiment: Agonist activity at human CB1 receptor expressing CHO cells co-expressing Galpha16 by calcium mobilization assay; type: functional, cell-based
Cannabinoid receptor 2 [2] = biological target: T2, Cannabinoid receptor 2 (Homo sapiens, UniProt P34972); experiment: Agonist activity at human CB2 receptor expressing CHO cells co-expressing Galpha16 by calcium mobilization assay; type: functional, cell-based
Cannabinoid receptor 2 [3] = biological target: T2, Cannabinoid receptor 2; experiment: Agonist activity at human CB2 receptor expressing CHO cells co-expressing Galpha16 by calcium mobilization assay relative to CP55940; type: functional, cell-based
Cannabinoid receptor 2 [4] = biological target: T2, Cannabinoid receptor 2; experiment: Antagonist activity at human CB2 receptor expressing CHO cells co-expressing Galpha16 assessed as inhibition of CP55940-induced calcium mobilization pre-incubated for 15 mins before CP55940 addition; type: functional, cell-based
Cannabinoid receptor 1 [5] = biological target: T1, Cannabinoid receptor 1; experiment: Agonist activity at human CB1 receptor expressing CHO cells co-expressing Galpha16 by calcium mobilization assay relative to CP55940; type: functional, cell-based
in vitro [6] = details: human, liver microsomes
Description: Half life in human liver microsomes at 1 uM in presence of NADPH by LC-MS/MS analysis

in vitro [7] = details: human, liver microsomes; remark: listed apart in the source
in vitro [8] = details: human, liver
in vitro [9] = details: human, liver microsomes; remark: listed apart in the source
Description: Stability in human liver microsomes assessed as parent compound remaining at 1 uM incubated for 60 mins in presence of NADPH by LC-MS/MS analysis

Cannabinoid receptor 1 [10] = biological target: T1, Cannabinoid receptor 1; experiment: Agonist activity at human CB1 receptor expressing CHO cells co-expressing Galpha16 at 10 uM by calcium mobilization assay; type: functional, cell-based; details: filed as agonist
Cannabinoid receptor 1 [11] = biological target: T1, Cannabinoid receptor 1; experiment: Induction of receptor desensitization at human CB1 receptor expressing CHO cells co-expressing Galpha16 at 10 uM followed by washing with HBSS buffer upon incubation for 10 mins and restimulated with CP55940 by calcium mobilization assay; type: functional, cell-based; details: filed as agonist
Cannabinoid receptor 1 [12] = biological target: T1, Cannabinoid receptor 1; experiment: Agonist activity at CB1 receptor (unknown origin) relative to control; details: filed as agonist
Cannabinoid receptor 1 [13] = biological target: T1, Cannabinoid receptor 1; experiment: Agonist activity at CB1 receptor (unknown origin)
Cannabinoid receptor 2 [14] = biological target: T2, Cannabinoid receptor 2; experiment: Agonist activity at CB2 receptor (unknown origin) relative to control; details: filed as agonist

T2 sequence (P34972 whole entry): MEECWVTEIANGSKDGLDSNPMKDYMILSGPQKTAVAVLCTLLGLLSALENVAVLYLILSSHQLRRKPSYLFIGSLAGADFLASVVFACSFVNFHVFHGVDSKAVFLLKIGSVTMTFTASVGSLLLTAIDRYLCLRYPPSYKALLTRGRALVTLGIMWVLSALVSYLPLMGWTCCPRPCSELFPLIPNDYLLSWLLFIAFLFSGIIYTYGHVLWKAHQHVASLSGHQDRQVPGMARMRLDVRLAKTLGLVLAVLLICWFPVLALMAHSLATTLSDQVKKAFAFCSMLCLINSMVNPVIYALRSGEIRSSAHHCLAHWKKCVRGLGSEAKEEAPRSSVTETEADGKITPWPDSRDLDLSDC
T1 sequence (P21554 whole entry): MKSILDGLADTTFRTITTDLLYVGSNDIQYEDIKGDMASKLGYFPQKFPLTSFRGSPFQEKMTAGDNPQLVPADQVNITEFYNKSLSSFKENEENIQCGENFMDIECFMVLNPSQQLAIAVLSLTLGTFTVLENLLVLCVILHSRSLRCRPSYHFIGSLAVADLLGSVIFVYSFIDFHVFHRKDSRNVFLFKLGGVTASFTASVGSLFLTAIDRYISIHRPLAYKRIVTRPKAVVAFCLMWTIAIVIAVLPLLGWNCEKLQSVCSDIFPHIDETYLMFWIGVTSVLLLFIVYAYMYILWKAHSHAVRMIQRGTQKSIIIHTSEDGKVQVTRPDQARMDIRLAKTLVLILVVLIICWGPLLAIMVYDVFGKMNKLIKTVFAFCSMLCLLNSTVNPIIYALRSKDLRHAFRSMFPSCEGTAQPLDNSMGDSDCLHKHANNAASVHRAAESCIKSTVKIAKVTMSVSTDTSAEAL

SMILES | EC50 (Cannabinoid receptor 1 [1]) | EC50 (Cannabinoid receptor 2 [2]) | Emax (Cannabinoid receptor 2 [3]; filed as agonist) | Emax (Cannabinoid receptor 1 [5]; filed as agonist) | also measured
CCCn1nc(C(=O)NC(C)(C)CO)cc1C(C)(C)C | 100000 nM | 210 nM | 100% | – | –
CCCCCn1nc(C(=O)NC(C)(C)CO)c(N)c1C(C)(C)C | 195 nM | 5.5 nM | 100% | 80% | IC50 (Cannabinoid receptor 2 [4]; cho): Not Active; half-life at 1 µM (in vitro [6]): 13.3 min; microsomal CLint at 1 µM (in vitro [7]): 104 µL/min/mg; CLint scaled at 1 µM (in vitro [8]): 94 mL/min/kg; remaining at 1 h, 1 µM (in vitro [9]): 4.6%
CCCCCn1nc(C(=O)NC23CC4CC(CC(C4)C2)C3)cc1C(C)(C)C | 271 nM | 194 nM | – | – | Emax (Cannabinoid receptor 1 [5]; filed as partial agonist): 69%; Emax (Cannabinoid receptor 2 [3]; filed as partial agonist): 58%
CC(C)(CO)NC(=O)c1cc(C(C)(C)C)n(CCCF)n1 | 100000 nM | 184 nM | 100% | – | –
CCCCCCn1nc(C(=O)NC(C)(C)CO)cc1C(C)(C)C | 47 nM | 13.4 nM | 100% | 100% | –
Cc1ccc(-n2nc(C(=O)NC(C)(C)CO)cc2C(C)(C)C)cc1 | 100000 nM | 197 nM | 40% | – | –
CC(C)(CO)NC(=O)c1cc(C(C)(C)C)n(-c2ccc(F)cc2)n1 | 100000 nM | 685 nM | 82% | – | –
CCCCCn1nc(C(=O)NC23CC4CC(CC(O)(C4)C2)C3)cc1C(C)(C)C | 4 nM | 100000 nM | – | 100% | –
CCCCCn1nc(C(C)(C)C)cc1C(=O)NC12CC3CC(CC(O)(C3)C1)C2 | 100000 nM | 100000 nM | – | – | –
O=C(O)Cc1ccccc1Nc1c(Cl)cccc1Cl [DICLOFENAC] | – | – | – | – | microsomal CLint at 1 µM (in vitro [7]): 129 µL/min/mg; CLint scaled at 1 µM (in vitro [8]): 116 mL/min/kg
CCCCCn1nc(C(=O)Nc2ccc(Cl)cc2)cc1C(C)(C)C | 100000 nM | 2350 nM | 80% | – | –
COc1ccc(-n2nc(C(=O)NC(C)(C)CO)cc2C(C)(C)C)cc1 | 100000 nM | 100000 nM | – | – | –
CC(C)(CO)NC(=O)c1cc(C(C)(C)C)n(-c2ccc(Cl)cc2)n1 | 100000 nM | 204 nM | 100% | – | –
COCCn1nc(C(=O)NC(C)(C)CO)cc1C(C)(C)C | 100000 nM | 100000 nM | – | – | –
CCCCCn1nc(C(=O)N[C@H](C(=O)OC)C(C)C)cc1C(C)(C)C | 26.6 nM | 7.2 nM | 100% | 70% | –
CCCCCn1nc(C(=O)NC(C)(C)CO)cc1C(F)(F)F | 187 nM | 53.8 nM | 80% | 80% | IC50 (Cannabinoid receptor 2 [4]; cho): Not Active
CC(C)(CO)NC(=O)c1cc(C(C)(C)C)n(-c2ncc(C(F)(F)F)cc2Cl)n1 | 100000 nM | 100000 nM | – | – | –
CCCCCn1nc(C(=O)NC(C)(C)CO)c(Cl)c1C(C)(C)C | 33.9 nM | 3.4 nM | 100% | 50% | IC50 (Cannabinoid receptor 2 [4]; cho): Not Active
CCCCCn1nc(C(C)(C)C)cc1C(=O)NC(C)(C)C | 100000 nM | 301 nM | 80% | – | –
CC(C)(CO)NC(=O)c1cc(C(C)(C)C)n(-c2ccc(Cl)cn2)n1 | 100000 nM | 7310 nM | 50% | – | –
CC(C)(CO)NC(=O)c1cc(C(C)(C)C)n(-c2ccc(C(F)(F)F)cc2)n1 | 100000 nM | 100000 nM | – | – | –
CC(C)(CO)NC(=O)c1cc(C(C)(C)C)n(-c2ncccn2)n1 | 100000 nM | 100000 nM | – | – | –
CCCCCn1nc(C(=O)NC(C)(C)CO)c([N+](=O)[O-])c1C(C)(C)C | 129 nM | 13.3 nM | 70% | 100% | IC50 (Cannabinoid receptor 2 [4]; cho): Not Active
CCCCCn1nc(C(=O)NC(C)(C)CO)cc1-c1ccc(F)cc1F | 100000 nM | 100000 nM | – | – | IC50 (Cannabinoid receptor 2 [4]; read-out: IC50): 87.1 nM; half-life at 1 µM (in vitro [6]): 21.4 min; microsomal CLint at 1 µM (in vitro [7]): 64.6 µL/min/mg; CLint scaled at 1 µM (in vitro [8]): 58.2 mL/min/kg; remaining at 1 h, 1 µM (in vitro [9]): 14.1%
CCCCCn1nc(C(=O)NC(C)(C)C)cc1C(C)(C)C | 7.2 nM | 12 nM | 100% | 100% | –
CCCCCn1nc(C(=O)NCc2ccc(Cl)cc2)cc1C(C)(C)C | 100000 nM | 100000 nM | – | – | –
CC(C)(CO)NC(=O)c1cc(C(C)(C)C)n(CCCCF)n1 | 2850 nM | 65.9 nM | 100% | 100% | –

SMILES | EC50 (Cannabinoid receptor 1 [1]) | EC50 (Cannabinoid receptor 2 [2]) | Emax (Cannabinoid receptor 2 [3]; filed as agonist) | Emax (Cannabinoid receptor 1 [5]; filed as agonist) | also measured
CCCCCn1nc(C(=O)NC(C)(C)CO)cc1C(C)(C)C | 17.4 nM | 2.9 nM | 100% | 100% | half-life at 1 µM (in vitro [6]): 22.2 min; microsomal CLint at 1 µM (in vitro [7]): 62.4 µL/min/mg; CLint scaled at 1 µM (in vitro [8]): 56.1 mL/min/kg; remaining at 1 h, 1 µM (in vitro [9]): 14.9%
CCCCCCC(C)(C)c1ccc([C@@H]2C[C@H](O)CC[C@H]2CCCO)c(O)c1 [CP-55940] | – | – | – | – | IC50 (Cannabinoid receptor 2 [4]; cho): Not Active; Activity (Cannabinoid receptor 1 [10]): Active; Activity (Cannabinoid receptor 1 [11]): Active
CC(C)(CO)NC(=O)c1cc(C(C)(C)C)n(-c2cccnc2)n1 | 100000 nM | 100000 nM | – | – | –
CCCCCn1nc(C(=O)NC(C)(C)CO)cc1C1CCCCC1 | 100000 nM | 100000 nM | – | – | IC50 (Cannabinoid receptor 2 [4]; cho): Not Active
CC(C)(CO)NC(=O)c1cc(C(C)(C)C)n(-c2ccc(F)cc2F)n1 | 100000 nM | 1730 nM | 80% | – | –
CCCCCn1nc(C(=O)NC(C)(C)CO)cc1CC(C)(C)C | 27 nM | 12 nM | 50% | 90% | IC50 (Cannabinoid receptor 2 [4]; cho): Not Active
C[C@]12CC[C@H]3[C@@H](CCC4=CC(=O)CC[C@@]43C)[C@@H]1CC[C@@H]2O [TESTOSTERONE] | – | – | – | – | half-life at 1 µM (in vitro [6]): 18.8 min; microsomal CLint at 1 µM (in vitro [7]): 73.6 µL/min/mg; CLint scaled at 1 µM (in vitro [8]): 66.3 mL/min/kg; remaining at 1 h, 1 µM (in vitro [9]): 10.7%
CC(C)(CO)NC(=O)c1cc(C(C)(C)C)n(-c2ccccn2)n1 | 100000 nM | 3890 nM | 80% | – | –
CCCCCn1nc(C(=O)Nc2ccncc2)cc1C(C)(C)C | 220 nM | 118 nM | 60% | – | Emax (Cannabinoid receptor 1 [5]): 30%
CCCCCn1nc(C(C)(C)C)cc1C(=O)Nc1ccc(Cl)cc1 | 100000 nM | 100000 nM | – | – | –
CCCCCn1nc(C(=O)NC(C)(C)CO)c(Br)c1C(C)(C)C | 27 nM | 2 nM | 100% | 50% | IC50 (Cannabinoid receptor 2 [4]; cho): Not Active
CC(C)(CO)NC(=O)c1cc(C(C)(C)C)n(CCCCCF)n1 | 43 nM | 36.4 nM | 70% | 90% | –
CC(C)(CO)NC(=O)c1cc(C(C)(C)C)n(CC2CC2)n1 | 4900 nM | 103 nM | 100% | – | Emax (Cannabinoid receptor 1 [5]): 20%
CCCCCn1nc(C(=O)NC2CCCCC2)cc1C(C)(C)C | 104 nM | 46 nM | 80% | 50% | –
CCCCCn1cc(C(=O)NC23CC4CC(CC(C4)C2)C3)c2ccccc21 | – | – | – | – | Emax (Cannabinoid receptor 1 [12]): 98%; EC50 (Cannabinoid receptor 1 [13]): 34 nM; Emax (Cannabinoid receptor 2 [14]): 91%
CCCCn1nc(C(=O)NC(C)(C)CO)cc1C(C)(C)C | 101 nM | 10.1 nM | 100% | 90% | –
CCCCCn1nc(C(C)(C)C)cc1C(=O)NC(C)(C)CO | 100000 nM | 319 nM | 80% | – | –
CCCCCn1nc(C(=O)N[C@@H](C(=O)OC)C(C)(C)C)cc1C(C)(C)C | 4.3 nM | 26.1 nM | 100% | 100% | –
CCCCCn1nc(C(C)(C)C)cc1C(=O)NCc1ccc(Cl)cc1 | 100000 nM | 100000 nM | – | – | –
CCCCCn1nc(C(C)(C)C)cc1C(=O)NC12CC3CC(CC(C3)C1)C2 | 100000 nM | 100000 nM | – | – | –
CCCCCn1nc(C(=O)NC(C)(C)CO)cc1C(C)C | 171 nM | 38.5 nM | 70% | 90% | IC50 (Cannabinoid receptor 2 [4]; cho): Not Active
CCCCCn1nc(C(=O)NC(C)(C)CO)cc1C1CC1 | 100000 nM | 100000 nM | – | – | IC50 (Cannabinoid receptor 2 [4]; cho): Not Active
CC(C)(CO)NC(=O)c1cc(C(C)(C)C)n(-c2ccc(OC(F)(F)F)cc2)n1 | 100000 nM | 100000 nM | – | – | –
CC(C)(CO)NC(=O)c1cc(C(C)(C)C)n(-c2ccc(F)cn2)n1 | 100000 nM | 135 nM | 100% | – | –
CC(C)(CO)NC(=O)c1cc(C(C)(C)C)n(-c2ccccc2)n1 | 100000 nM | 100000 nM | – | – | –
CCCCCn1nc(C(=O)N[C@@H](C(=O)OC)C(C)C)cc1C(C)(C)C | 1.6 nM | 7.4 nM | 90% | 90% | half-life at 1 µM (in vitro [6]): 11.8 min; microsomal CLint at 1 µM (in vitro [7]): 117 µL/min/mg; CLint scaled at 1 µM (in vitro [8]): 105 mL/min/kg; remaining at 1 h, 1 µM (in vitro [9]): 2.9%
